Measured values from ChEMBL document CHEMBL1201862, “PubChem BioAssay data set” (2004).
Structures can show the parent of a compound that is named as a salt. Activity calls are given as the source filed them.

Key:
[1] = Dose-response inhibition of insulin secretion in a rat insulinoma line at 5 mM glucose (AID 1117331); assay type: functional, cell-based; conditions: INS-1E
cells [2] = assay type: functional, cell-based; conditions: INS-1E
[3] = target: Mitogen-activated protein kinase 10 (Homo sapiens, UniProt P53779); assay: Dose response biochemical screening assay for inhibitors of c-Jun N-Terminal Kinase 3 (JNK3). [Related pubchem assays: 746 ]
[4] = HEK293 cell cytotoxicity, dose response, cytotoxicity control, ATP luminescence, dry powder, set 3 (AID 743131); assay type: functional, cell-based
[5] = HepG2 cell cytotoxicity, dose response, cytotoxicity control, ATP luminescence, dry powder, set 2 (AID 743129); assay type: functional, cell-based
[6] = M. tuberculosis growth inhibition, HTS (AID 449762); assay type: functional
Vero [7] = assay: West Nile virus antiviral activity, cell-based, CPE readout (AID 1621); assay type: functional; conditions: Chlorocebus sabaeus
[8] = target: Photoreceptor-specific nuclear receptor (Homo sapiens, UniProt Q9Y5X4); assay: NR2E3 inverse agonists, dose response, biochemical, TR-FRET (AID 463256); assay type: functional
[9] = target: Peroxisome proliferator-activated receptor gamma/Nuclear receptor corepressor 2 (Homo sapiens, UniProt P37231+Q9Y618); assay: Counterscreen for NR2E3 inverse agonists: TR-FRET-based biochemical high throughput dose response assay to identify inverse agonists of the interaction between peroxisome proliferator-activated receptor gamma (PPARg) and nuclear receptor co-repressor 2 (NCOR2).; assay type: functional
[10] = target: Aryl hydrocarbon receptor (Homo sapiens, UniProt P35869); assay: Luminescence-based cell-based high throughput dose response assay for activators of the Aryl Hydrocarbon Receptor (AHR). [Related pubchem assays: 2796 (Primary screen (AHR activators in singlicate)), 2845 (Confirmation screen (AHR activators in triplicate)), 434939 (Counterscreen (PXR activators in triplicate)), 2804 (Summary (AHR activators))]; assay type: ADME
[11] = target: Glutathione-S-transferase (Schistosoma japonicum, UniProt Q26513); assay: biotin-GST/anti-GST TR-FRET signal inhibitors, dose response, artefact control for Vif-APOBEC3G degradation inhibitor project, biochemical (AID 1117362); assay type: functional
[12] = THP-1 cell cytotoxicity, dose response, cytotoxicity control for Vif-APOBEC3G degradation inhibitor project, THP-1 cells (AID 1117359); assay type: functional; conditions: Human immunodeficiency virus 1, THP-1
Genome polyprotein = Genome polyprotein (dengue virus type 2, UniProt P29990); assay: Dengue-2 NS5 methyltransferase inhibitors, primary screen, biochemical, confirmation dose response (AID 588689); assay type: functional
Phospholipase A2 = Phospholipase A2 (Homo sapiens, UniProt P04054); assay type: functional;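 further: confirmatory dose-response counterscreen on phospholipase A2, testing hits that came from an ultra-high-throughput screen for ATG4B inhibitors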
[13] = target: T1, Histone-lysine N-methyltransferase NSD2 (Homo sapiens, UniProt O96028); assay type: biochemical
T1 sequence (O96028 whole entry): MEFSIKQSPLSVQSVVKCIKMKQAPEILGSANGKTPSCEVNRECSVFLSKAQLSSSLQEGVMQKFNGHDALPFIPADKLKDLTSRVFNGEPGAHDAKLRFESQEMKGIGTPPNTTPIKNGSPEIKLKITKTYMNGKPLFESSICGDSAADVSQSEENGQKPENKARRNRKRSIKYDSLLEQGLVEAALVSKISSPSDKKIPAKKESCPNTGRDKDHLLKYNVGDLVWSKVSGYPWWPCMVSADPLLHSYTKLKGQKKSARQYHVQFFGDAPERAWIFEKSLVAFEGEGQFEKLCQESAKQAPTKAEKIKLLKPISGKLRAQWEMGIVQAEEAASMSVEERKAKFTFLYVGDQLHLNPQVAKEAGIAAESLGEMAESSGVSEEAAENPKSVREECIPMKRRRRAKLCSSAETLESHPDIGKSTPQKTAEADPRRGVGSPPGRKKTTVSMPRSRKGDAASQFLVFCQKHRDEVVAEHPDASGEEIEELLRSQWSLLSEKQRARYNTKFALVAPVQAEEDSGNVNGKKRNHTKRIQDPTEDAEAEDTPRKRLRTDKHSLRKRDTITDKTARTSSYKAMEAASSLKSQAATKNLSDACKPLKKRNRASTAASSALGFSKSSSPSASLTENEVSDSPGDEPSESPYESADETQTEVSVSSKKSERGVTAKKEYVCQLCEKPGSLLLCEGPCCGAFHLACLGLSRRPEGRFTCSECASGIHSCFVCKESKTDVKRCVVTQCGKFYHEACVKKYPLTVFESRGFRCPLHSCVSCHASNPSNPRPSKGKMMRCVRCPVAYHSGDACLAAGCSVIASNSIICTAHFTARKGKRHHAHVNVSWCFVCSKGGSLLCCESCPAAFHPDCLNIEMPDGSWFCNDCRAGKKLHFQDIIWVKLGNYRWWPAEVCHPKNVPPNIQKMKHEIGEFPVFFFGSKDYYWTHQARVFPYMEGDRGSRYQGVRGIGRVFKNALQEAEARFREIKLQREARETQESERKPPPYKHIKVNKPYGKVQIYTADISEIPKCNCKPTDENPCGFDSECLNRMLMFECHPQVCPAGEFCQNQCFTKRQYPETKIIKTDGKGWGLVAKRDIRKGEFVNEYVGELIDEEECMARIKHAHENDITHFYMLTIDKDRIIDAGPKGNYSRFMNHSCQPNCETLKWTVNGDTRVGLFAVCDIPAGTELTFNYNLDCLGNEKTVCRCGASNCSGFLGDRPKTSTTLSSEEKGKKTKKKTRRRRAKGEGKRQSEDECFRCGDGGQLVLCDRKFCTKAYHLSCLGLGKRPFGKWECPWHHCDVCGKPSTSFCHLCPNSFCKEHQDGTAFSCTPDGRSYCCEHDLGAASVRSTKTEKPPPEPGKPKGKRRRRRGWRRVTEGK

[14] = target: T2, Tyrosyl-DNA phosphodiesterase 2 (Homo sapiens, UniProt O95551); assay: human TDP2 enzyme inhibitors, dose response, biochemical, epi absorbance, IC50 (AID 743297)
T2 sequence (O95551 whole entry): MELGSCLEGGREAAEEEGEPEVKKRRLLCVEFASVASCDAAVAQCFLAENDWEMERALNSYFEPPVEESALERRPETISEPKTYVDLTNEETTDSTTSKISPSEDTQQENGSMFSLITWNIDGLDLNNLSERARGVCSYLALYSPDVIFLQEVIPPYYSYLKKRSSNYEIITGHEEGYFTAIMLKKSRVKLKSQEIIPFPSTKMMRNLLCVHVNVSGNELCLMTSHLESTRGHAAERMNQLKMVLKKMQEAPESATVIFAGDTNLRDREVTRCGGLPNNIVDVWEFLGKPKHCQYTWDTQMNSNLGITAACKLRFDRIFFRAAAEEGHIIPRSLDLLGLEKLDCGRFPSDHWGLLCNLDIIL

Vero [15] = assay: Vero cell cytotoxicity, cytotoxicity control for flavivirus capping enzyme inhibitors (AID 588742); assay type: functional; conditions: Chlorocebus sabaeus
Cysteine protease ATG4B = target: T3, Cysteine protease ATG4B (Homo sapiens, UniProt Q9Y4P1); assay type: functional;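 further: Fluorescence-based dose-response confirmation assay measuring inhibition of ATG4B activity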
T3 sequence (Q9Y4P1 whole entry): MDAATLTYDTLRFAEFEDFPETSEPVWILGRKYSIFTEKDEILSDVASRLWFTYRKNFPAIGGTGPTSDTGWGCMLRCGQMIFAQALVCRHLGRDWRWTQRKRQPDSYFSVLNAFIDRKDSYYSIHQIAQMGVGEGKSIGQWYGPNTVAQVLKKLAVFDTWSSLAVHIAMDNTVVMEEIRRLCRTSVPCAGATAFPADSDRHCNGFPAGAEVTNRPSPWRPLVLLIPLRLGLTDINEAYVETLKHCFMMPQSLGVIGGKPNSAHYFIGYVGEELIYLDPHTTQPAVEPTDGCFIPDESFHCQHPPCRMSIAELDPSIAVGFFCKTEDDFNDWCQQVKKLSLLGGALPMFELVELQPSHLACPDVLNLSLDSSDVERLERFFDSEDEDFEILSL

[16] = target: Dual specificity tyrosine-phosphorylation-regulated kinase 1A (Rattus norvegicus, UniProt Q63470); assay type: biochemical, Homo sapiens
[17] = target: T4, Long-chain-fatty-acid--AMP ligase FadD28 (Mycobacterium tuberculosis, UniProt P9WQ59); assay: Fluorescence polarization aasay to screen for inhibitors that compete for the binding of FadD28 to a bisubstrate Measured in Biochemical System Using Plate Reader - 2147-01_Inhibitor_Dose_CherryPick_Activity.; assay type: functional, Mycobacterium tuberculosis H37Rv
T4 sequence (P9WQ59 whole entry): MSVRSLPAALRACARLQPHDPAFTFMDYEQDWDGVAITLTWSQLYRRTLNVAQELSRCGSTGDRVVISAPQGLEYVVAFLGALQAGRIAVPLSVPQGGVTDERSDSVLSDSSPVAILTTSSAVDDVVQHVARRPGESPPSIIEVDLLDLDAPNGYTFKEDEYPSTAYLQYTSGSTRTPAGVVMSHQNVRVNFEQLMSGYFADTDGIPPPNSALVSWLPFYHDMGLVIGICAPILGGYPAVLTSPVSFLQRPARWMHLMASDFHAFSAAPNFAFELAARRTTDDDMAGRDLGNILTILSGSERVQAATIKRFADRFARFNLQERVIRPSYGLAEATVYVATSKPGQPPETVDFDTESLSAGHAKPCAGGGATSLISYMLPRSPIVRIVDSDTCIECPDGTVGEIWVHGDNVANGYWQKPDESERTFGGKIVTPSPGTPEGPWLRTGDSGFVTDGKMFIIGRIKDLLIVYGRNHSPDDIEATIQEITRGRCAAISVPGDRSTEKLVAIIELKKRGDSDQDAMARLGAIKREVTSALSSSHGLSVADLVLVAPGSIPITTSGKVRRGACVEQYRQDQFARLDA

[18] = target: Heat shock protein HSP 90-alpha (Homo sapiens, UniProt P07900); assay: Luminescence-based dose response biochemical high throughput screening assay for inhibitors of the Heat Shock Protein 90 (HSP90). [Related pubchem assays: 1831 (Summary AID.), 1846 (Confirmation screen.), 1789 (Primary screen.)]
[19] = Luminescence Cell-Based Dose Confirmation HTS to Identify Activators of 5'UTR Stem-Loop Driven Alpha-Synuclein mRNA Translation in H4 Neuroglioblastoma Cells. [Related pubchem assays: 1829 (Project Summary), 1814 (Primary HTS)]; assay type: functional
[20] = Luminescence Cell-Based Dose Response HTS to Identify Activators of Luciferase Translation or Activity in H4 […] Cells. [Related pubchem assays: 1829 (Project Summary), 1814 (Primary HTS)]; assay type: functional
H4 = assay: Luminescence Cell-Based Dose Response HTS to Identify Activators of 5'UTR Stem-Loop Driven Prion Protein mRNA Translation in H4 Neuroglioblastoma Cells. [Related pubchem assays: 1829 (Project Summary), 1814 (Primary HTS)]; assay type: functional; conditions: Homo sapiens
cells [21] = conditions: HEK293
[22] = A549 cell cytotoxicity, dose response, cytotoxicity control, plate reader, dry powder, set 6 (AID 743312); assay type: functional, cell-based
[23] = HepG2 cell cytotoxicity, dose response, cytotoxicity control, plate reader, dry powder, set 6 (AID 743311); assay type: functional, cell-based
Cytochrome P450 2C19 = Cytochrome P450 2C19 (Homo sapiens, UniProt P33261); assay: qHTS Assay for Inhibitors and Substrates of Cytochrome P450 2C19. [Related pubchem assays: 410 ]; assay type: ADME; conditions: read-out: Potency
[24] = HCT116 cell viability decrease, GSK3B pretreatment – CellTiter-Glo, IC50, dose response (AID 1117339); assay type: functional; conditions: HCT-116
[25] = Concentration-dependent survival of SW480 colon cancer line, luminescence detection with CellTiter-Glo, half-maximal inhibitory concentration (AID 1117338); assay type: functional
[26] = RKO cell viability reduction, dose response, CellTiter-Glo luminescence (AID 1117322); assay type: functional
[27] = SNU-C1 cell viability reduction, dose response, CellTiter-Glo luminescence (AID 1117323); assay type: functional, cell-based
[28] = cytotoxicity toward HT-29 cells – cell-based, CellTiter-Glo luminescence, IC50, dose response (AID 1117330); assay type: functional
[29] = CellTiter-Glo luminescent dose response of DLD-1 viability loss (AID 1117352); assay type: functional
[30] = cytotoxicity toward Colo320 cells – cell-based, CellTiter-Glo luminescence, IC50, dose response (AID 1117334); assay type: functional; conditions: COLO 320

Sequence of Peroxisome proliferator-activated receptor gamma/Nuclear receptor corepressor 2 (P37231 whole entry): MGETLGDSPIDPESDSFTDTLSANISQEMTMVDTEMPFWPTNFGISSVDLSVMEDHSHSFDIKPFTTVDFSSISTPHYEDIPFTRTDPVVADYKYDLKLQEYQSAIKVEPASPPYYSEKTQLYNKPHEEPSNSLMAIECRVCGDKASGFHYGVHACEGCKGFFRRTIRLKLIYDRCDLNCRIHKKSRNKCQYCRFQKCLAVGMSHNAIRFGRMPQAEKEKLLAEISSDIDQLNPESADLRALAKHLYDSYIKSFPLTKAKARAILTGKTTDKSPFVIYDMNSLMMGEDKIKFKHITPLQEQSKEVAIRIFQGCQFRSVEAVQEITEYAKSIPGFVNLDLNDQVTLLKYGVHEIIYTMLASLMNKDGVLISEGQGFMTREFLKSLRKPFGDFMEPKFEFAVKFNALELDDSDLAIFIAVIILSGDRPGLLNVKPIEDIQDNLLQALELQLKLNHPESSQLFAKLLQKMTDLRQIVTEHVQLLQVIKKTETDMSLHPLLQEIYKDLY
Sequence of Peroxisome proliferator-activated receptor gamma/Nuclear receptor corepressor 2 (Q9Y618 whole entry): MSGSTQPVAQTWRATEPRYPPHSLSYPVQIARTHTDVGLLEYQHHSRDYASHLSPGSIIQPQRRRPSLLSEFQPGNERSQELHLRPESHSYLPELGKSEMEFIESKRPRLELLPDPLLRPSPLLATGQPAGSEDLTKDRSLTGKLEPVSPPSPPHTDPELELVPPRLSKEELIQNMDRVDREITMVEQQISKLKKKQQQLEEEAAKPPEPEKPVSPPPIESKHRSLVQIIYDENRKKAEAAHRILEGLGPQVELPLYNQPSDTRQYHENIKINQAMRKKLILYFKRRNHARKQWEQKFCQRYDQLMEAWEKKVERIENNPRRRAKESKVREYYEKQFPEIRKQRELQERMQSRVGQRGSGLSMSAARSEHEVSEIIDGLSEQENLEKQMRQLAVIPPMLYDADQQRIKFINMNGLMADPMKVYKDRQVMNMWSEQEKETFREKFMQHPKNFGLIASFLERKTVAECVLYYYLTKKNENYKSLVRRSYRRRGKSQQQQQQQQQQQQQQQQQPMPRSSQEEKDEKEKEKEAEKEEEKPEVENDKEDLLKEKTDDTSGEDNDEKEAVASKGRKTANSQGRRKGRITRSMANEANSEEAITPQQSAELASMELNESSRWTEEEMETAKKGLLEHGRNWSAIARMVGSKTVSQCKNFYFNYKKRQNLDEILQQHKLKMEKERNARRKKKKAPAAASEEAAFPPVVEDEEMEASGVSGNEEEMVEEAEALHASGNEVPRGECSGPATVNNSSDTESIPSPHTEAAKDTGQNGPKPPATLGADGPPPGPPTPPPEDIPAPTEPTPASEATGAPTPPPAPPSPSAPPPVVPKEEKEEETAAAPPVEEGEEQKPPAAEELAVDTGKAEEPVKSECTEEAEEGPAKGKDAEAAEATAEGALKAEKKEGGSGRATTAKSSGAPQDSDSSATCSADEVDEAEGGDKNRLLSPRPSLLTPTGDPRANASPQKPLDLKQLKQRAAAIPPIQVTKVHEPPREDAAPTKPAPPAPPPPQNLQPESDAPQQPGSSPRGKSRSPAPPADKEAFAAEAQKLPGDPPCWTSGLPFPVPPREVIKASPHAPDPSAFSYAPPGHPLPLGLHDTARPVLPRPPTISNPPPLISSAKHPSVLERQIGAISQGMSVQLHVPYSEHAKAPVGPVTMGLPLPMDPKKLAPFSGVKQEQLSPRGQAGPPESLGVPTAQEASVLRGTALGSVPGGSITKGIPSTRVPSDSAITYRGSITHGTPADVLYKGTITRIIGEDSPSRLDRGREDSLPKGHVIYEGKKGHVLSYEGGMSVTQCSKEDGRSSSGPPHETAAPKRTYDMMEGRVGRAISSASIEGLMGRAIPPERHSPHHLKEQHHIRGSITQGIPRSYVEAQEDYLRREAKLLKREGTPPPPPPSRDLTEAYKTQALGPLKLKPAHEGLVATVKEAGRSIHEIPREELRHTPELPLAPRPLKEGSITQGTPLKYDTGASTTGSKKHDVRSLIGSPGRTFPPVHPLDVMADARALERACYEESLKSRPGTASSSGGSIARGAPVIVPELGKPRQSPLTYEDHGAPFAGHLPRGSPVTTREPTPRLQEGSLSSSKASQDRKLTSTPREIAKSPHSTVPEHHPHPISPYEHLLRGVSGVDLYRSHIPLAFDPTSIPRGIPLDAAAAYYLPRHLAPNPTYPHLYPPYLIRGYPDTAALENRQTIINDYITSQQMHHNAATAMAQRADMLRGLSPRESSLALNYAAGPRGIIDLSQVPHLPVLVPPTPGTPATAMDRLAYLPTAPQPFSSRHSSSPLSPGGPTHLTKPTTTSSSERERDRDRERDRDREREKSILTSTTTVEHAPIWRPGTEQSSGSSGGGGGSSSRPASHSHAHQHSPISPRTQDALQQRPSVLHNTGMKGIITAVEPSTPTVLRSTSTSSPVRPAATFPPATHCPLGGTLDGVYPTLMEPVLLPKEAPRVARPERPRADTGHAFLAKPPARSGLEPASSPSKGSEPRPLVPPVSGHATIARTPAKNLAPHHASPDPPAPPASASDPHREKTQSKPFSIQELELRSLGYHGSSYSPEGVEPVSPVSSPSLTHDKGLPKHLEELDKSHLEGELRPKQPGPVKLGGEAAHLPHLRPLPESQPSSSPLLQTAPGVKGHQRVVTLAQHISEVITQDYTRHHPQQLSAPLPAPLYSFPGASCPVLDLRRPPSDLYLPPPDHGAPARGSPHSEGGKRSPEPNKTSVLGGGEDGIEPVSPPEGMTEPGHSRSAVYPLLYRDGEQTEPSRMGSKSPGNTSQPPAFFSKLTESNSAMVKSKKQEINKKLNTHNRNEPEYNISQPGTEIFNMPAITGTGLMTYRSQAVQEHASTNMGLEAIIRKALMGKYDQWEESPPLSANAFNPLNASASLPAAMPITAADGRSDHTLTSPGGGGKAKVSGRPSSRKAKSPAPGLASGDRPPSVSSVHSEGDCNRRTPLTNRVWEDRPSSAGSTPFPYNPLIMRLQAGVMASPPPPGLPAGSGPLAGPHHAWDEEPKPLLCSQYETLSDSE
Sequence of Mitogen-activated protein kinase 10 (P53779 whole entry): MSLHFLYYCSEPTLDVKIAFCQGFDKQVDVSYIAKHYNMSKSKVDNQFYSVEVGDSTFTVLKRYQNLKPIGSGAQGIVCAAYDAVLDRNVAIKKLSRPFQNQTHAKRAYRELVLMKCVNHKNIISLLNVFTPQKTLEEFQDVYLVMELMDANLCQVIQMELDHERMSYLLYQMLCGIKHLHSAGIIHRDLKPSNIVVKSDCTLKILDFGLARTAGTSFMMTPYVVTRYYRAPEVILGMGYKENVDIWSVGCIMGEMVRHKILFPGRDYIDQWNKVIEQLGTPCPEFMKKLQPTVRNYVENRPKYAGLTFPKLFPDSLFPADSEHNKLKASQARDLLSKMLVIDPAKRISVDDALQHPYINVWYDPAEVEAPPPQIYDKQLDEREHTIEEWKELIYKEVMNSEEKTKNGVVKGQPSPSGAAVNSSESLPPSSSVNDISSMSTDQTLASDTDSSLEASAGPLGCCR
Sequence of Phospholipase A2 (P04054 whole entry): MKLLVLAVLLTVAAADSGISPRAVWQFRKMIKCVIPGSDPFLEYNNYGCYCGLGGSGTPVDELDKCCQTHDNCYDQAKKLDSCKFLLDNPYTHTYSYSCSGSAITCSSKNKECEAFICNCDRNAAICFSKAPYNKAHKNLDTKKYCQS
Sequence of Glutathione-S-transferase (Q26513 whole entry): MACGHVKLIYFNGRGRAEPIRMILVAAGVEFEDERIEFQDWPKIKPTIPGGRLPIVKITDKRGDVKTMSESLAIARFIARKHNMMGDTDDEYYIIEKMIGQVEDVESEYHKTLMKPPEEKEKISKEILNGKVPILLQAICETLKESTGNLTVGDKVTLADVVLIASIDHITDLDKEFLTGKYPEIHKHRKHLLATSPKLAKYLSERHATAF
Sequence of Genome polyprotein (P29990 2492-3391 limits assumed): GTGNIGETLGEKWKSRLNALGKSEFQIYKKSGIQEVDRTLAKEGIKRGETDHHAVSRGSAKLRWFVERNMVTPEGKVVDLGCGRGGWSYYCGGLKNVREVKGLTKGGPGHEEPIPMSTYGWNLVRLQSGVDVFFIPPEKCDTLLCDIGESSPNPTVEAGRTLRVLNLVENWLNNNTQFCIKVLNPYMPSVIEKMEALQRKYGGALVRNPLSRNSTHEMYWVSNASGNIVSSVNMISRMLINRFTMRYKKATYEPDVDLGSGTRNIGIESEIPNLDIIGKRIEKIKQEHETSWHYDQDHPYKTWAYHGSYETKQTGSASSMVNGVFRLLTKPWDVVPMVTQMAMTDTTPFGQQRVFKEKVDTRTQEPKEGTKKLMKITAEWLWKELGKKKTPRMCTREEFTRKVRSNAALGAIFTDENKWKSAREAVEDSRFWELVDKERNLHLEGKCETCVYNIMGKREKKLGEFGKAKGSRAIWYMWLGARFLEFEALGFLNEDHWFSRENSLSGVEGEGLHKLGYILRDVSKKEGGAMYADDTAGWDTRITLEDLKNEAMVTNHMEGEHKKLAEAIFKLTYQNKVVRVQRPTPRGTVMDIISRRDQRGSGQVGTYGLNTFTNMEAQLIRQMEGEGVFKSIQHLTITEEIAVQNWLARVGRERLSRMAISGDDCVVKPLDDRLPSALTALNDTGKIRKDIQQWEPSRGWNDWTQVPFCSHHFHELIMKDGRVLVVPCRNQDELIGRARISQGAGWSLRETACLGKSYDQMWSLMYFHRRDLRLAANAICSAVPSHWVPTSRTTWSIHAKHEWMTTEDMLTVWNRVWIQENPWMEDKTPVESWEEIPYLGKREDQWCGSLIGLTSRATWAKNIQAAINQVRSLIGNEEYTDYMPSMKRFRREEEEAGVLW

Nc1c2c(nc3c1CCC3)CCCC2
IC50 [1]: 11.7 µM (inactive)
IC50 (cells [2]): > 33.3 µM (inactive)

CCOC(=O)c1ccc2[nH]c3c(c2c1)CCCCC3=O
IC50 [3]: > 93.1 µM (not active)

CCOC(=O)c1c(NC(=O)CN2CCN(C)CC2)sc(C)c1-c1ccc(C)cc1
AC50 [4]: 1.74 µM (active)
AC50 [5]: 16.7 µM (active)

CC(=O)CCSc1ncnc2sc(-c3ccccc3)cc12
IC50 [6]: > 100 µM (active)

Cc1cc(C)cc(SCc2noc(C(=O)NCCN(C)C)c2C(=O)NCCN(C)C)c1
IC50 (Vero [7]): 26.9 µM (active)

CCN(CC)S(=O)(=O)c1ccc(OC)c(NC(=O)COc2ccc3c(C)cc(=O)oc3c2)c1
IC50 [8]: 2.35 µM (active)
IC50 [9]: 2.14 µM (active)

COc1cc2nc(-c3cccc(F)c3)cc(O)c2cc1OC
EC50 [10]: 5.44 µM (active)

CN1CCN(C2=C(Cl)C(=O)c3ccccc3C2=O)CC1
IC50 [11]: > 100 µM (active)
CC50 [12]: 6.22 µM (active)
IC50 (Genome polyprotein): 6.33 µM (active)
IC50 (Phospholipase A2): 58.9 µM (inactive)
AC50 [13]: 0.108 µM (active)
IC50 [14]: 0.581 µM (active)
CC50 (Vero [15]): 11.8 µM (active)
IC50 (Cysteine protease ATG4B): 2.02 µM (active)
AC50 [16]: 1.03 µM (active)
AC50 [17]: > 100 µM (inactive)

Cc1cc(NO)nc(-c2ccc(Br)cc2)n1
IC50 [18]: 0.728 µM (active)
EC50 [19]: 0.405 µM (active)
EC50 [20]: 22.8 µM (active)
EC50 (H4): 40.2 µM (active)

NCC(=O)Nc1ccc(-n2nc(C(F)(F)F)cc2-c2ccc3c(ccc4ccccc43)c2)cc1 [AR-12]
AC50 (cells [21]): 4.39 µM (active)
AC50 [22]: 18.3 µM (active)
AC50 [23]: 8.29 µM (active)

O=c1cc(-c2cccc(O)c2)oc2c(O)c(O)ccc12
AC50 (Cytochrome P450 2C19): 15.8 µM (inconclusive)

CCc1cccc(N(C)C(=N)Nc2cccc3ccccc23)c1 [APTIGANEL HYDROCHLORIDE]
IC50 [24]: > 20 µM (inactive)
IC50 [25]: > 20 µM (inactive)
IC50 [26]: > 20 µM (inactive)
IC50 [27]: > 20 µM (inactive)
IC50 [28]: > 20 µM (inactive)
IC50 [29]: > 20 µM (inactive)
IC50 [30]: > 20 µM (inactive)
